Data reported in patent EP2396329B1, “COMPOUNDS FOR THE TREATMENT OF HEPATITIS C” (priority 2009, dated 2010).
Read-outs that look alike come from different tables or passages of the source.

What was measured:
HCV NS5B = molecular target: T1, HCV NS5B (Hepatitis C virus genotype 1b, UniProt Q9WMX2); experiment: HCV NS5B RdRp enzyme assay (standard or modified); format: biochemical
T1 construct: The protein was expressed with an 18 amino acid C-terminal truncation to enhance the solubility; made in house; host or cells: E. coli BL21(DE3)
Description: HCV NS5B RdRp cloning, expression, and purification. The cDNA encoding the NS5B protein of HCV, genotype 1b, was cloned into the pET21a expression vector. The protein was expressed with an 18 amino acid C-terminal truncation to enhance the solubility. The E. coli competent cell line BL21(DE3) was used for expression of the protein. Cultures were grown at 37 °C for ~ 4 hours until the cultures reached an optical density of 2.0 at 600 nm. The cultures were cooled to 20 °C and induced with I mM IPTG. Fresh ampicillin was added to a final concentration of 50 µg/ml and the cells were grown overnight at 20 °C.
Cell pellets (3L) were lysed for purification to yield 15-24 mgs of purified NS5B. The lysis buffer consisted of 20 mM Tris-HCl, pH 7.4, 500 mM NaCl, 0.5% triton X-100, 1 mM DTT, 1mM EDTA, 20% glycerol, 0.5 mg/ml lysozyme, 10 mM MgCl2, 15 ug/ml deoxyribonuclease I, and Complete TM protease inhibitor tablets (Roche). After addition of the lysis buffer, frozen cell pellets were resuspended using a tissue homogenizer. To reduce the viscosity of the sample, aliquots of the lysate were sonicated on ice using a microtip attached to a Branson sonicator. The sonicated lysate was centrifuged at 100,000 x g for 1hr at 4 °C and filtered through a 0.2 µm filter unit (Corning).
The protein was purified using three sequential chromatography steps: Heparin sepharose CL-6B, polyU sepharose 4B, and Hitrap SP sepharose (Pharmacia). The chromatography buffers were identical to the lysis buffer but contained no lysozyme, deoxyribonuclease I, MgCl2 or protease inhibitor and the NaCl concentration of the buffer was adjusted according to the requirements for charging the protein onto the column. Each column was eluted with a NaCl gradient which varied in length from 5-50 column volumes depending on the column type. After the final chromatography step, the resulting purity of the enzyme is >90% based on SDS-PAGE analysis. The enzyme was aliquoted and stored at -80 °C.
Standard HCV NS5B RdRp enzyme assay. HCV RdRp genotype 1b assays were run in a final volume of 60 µl in 96 well plates (Costar 3912). The assay buffer is composed of 20 mM Hepes, pH 7.5, 2.5 mM KCI, 2.5 mM MgCl2, 1 mM DTT, 1.6 U RNAse inhibitor (Promega N2515), 0.1 mg/ml BSA (Promega R3961), and 2 % glycerol. All compounds were serially diluted (3-fold) in DMSO and diluted further in water such that the final concentration of DMSO in the assay was 2%. HCV RdRp genotype Ib enzyme was used at a final concentration of 28 nM. A polyA template was used at.6 nM, and a biotinylated oligo-dT12 primer was used at 180 nM final concentration. Template was obtained commercially (Amersham 27-4110). Biotinylated primer was prepared by Sigma Genosys. 3H-UTP was used at 0.6 µCi (0.29 µM total UTP). Reactions were initiated by the addition of enzyme, incubated at 30 °C for 60 min, and stopped by adding 25 µl of 50 mM EDTA containing SPA beads (4 µg/µl, Amersham RPNQ 0007). Plates were read on a Packard Top Count NXT after > 1hr incubation at room temperature.
Modified HCV NS5B RdRp enzyme assay. A modified enzyme assay was performed essentially as described for the standard enzyme assay except for the following: The biotinylated oligo dT12 primer was precaptured on streptavidin-coated SPA beads by mixing primer and beads in assay buffer and incubating at room temperature for one hour. Unbound primer was removed after centrifugation. The primer-bound beads were resuspended in 20 mM Hepes buffer, pH 7.5 and used in the assay at final concentrations of 20 nM primer and 0.67 µg/µl beads. Order of addition in the assay: enzyme (14 nM) was added to diluted compound followed by the addition of a mixture of template (0.2 nM), 3H-UTP (0.6 µCi, 0.29 µM), and primer-bound beads, to initiate the reaction; concentrations given are final. Reactions were allowed to proceed for 4 hours at 30° C.
IC50 values for compounds were determined using seven different [I]. […]

HCV replicon = HCV replicon assay (FRET or luciferase readout); format: cell-based; conditions: Hepatitis C virus
From the text: FRET Assay Preparation. To perform the HCV FRET screening assay, 96-well cell culture plates were used. The FRET peptide (Anaspec, Inc.) (Taliani et al., Anal. Biochem. 1996, 240, 60-67) contains a fluorescence donor, EDANS, near one end of the peptide and an acceptor, DABCYL, near the other end. The fluorescence of the peptide is quenched by […] resonance energy transfer (RET) between the donor and the acceptor, but as the NS3 protease cleaves the peptide the products are released from RET quenching and the fluorescence of the donor becomes apparent. The assay reagent was made as follows: 5X cell Luciferase cell culture lysis reagent from Promega (#E153A) diluted to 1X with dH2O, NaCl added to 150 mM final, the FRET peptide diluted to 20 µM final from a 2 mM stock.
To prepare plates, HCV replicon cells, with or without a Renilla luciferase reporter gene, were trypsinized and placed into each well of a 96-well plate with titrated test compounds added in columns 3 through 12; columns 1 and 2 contained a control compound (HCV protease inhibitor), and the bottom row contained cells without compound. The plates were then placed in a CO2 incubator at 37 °C.
Assays. Subsequent to addition of the test compounds described above (FRET Assay Preparation), at various times the plate was removed and Alamar blue solution (Trek Diagnostics, #00-100) was added per well as a measure of cellular toxicity. After reading in a Cytoflour 4000 instrument (PE Biosystems), plates were rinsed with PBS and then used for FRET assay by the addition of 30 ul of the FRET peptide assay reagent described above (FRET Assay Preparation) per well. The plate was then placed into the Cytoflour 4000 instrument which had been set to 340 excite/490 emission, automatic mode for 20 cycles and the plate read in a kinetic mode. Typically, the signal to noise using an endpoint analysis after the reads was at least three-fold. Alternatively, after Alamar blue reading, plates were rinsed with PBS, 50 ul of DMEM (high glucose) without phenol red was added and plates were then used for luciferase assay using the Promega Dual-Glo Luciferase Assay System.
Compound analysis was determined by quantification of the relative HCV replicon inhibition and the relative cytotoxicity values. To calculate cytoxicity values, the average Alamar Blue fluorescence signals from the control wells were set as 100% non-toxic. The individual signals in each of the compound test wells were then divided by the average control signal and multiplied by 100% to determine […]. To calculate the HCV replicon inhibition values, an average background value was obtained from the two wells containing the highest amount of HCV protease inhibitor at the end of the assay period. These numbers were similar to those obtained from naïve Huh-7 cells.
The background numbers were then subtracted from the average signal obtained from the control wells and this number was used as 100% activity. The individual signals in each of the compound test wells were then divided by the averaged control values after background subtraction and multiplied by 100% to determine percent activity. EC50 values for a protease inhibitor titration were calculated as the concentration which caused a 50% reduction in FRET or luciferase activity. The two numbers generated for the compound plate, percent cytoxicity and percent activity were used to determine compounds of interest for further analysis.

[1] = HCV NS5B RdRp enzyme, genotype 1b, read-out: IC50
[2] = HCV replicon cells, FRET or luciferase activity, read-out: EC50

T1 sequence (Q9WMX2 2420-2992): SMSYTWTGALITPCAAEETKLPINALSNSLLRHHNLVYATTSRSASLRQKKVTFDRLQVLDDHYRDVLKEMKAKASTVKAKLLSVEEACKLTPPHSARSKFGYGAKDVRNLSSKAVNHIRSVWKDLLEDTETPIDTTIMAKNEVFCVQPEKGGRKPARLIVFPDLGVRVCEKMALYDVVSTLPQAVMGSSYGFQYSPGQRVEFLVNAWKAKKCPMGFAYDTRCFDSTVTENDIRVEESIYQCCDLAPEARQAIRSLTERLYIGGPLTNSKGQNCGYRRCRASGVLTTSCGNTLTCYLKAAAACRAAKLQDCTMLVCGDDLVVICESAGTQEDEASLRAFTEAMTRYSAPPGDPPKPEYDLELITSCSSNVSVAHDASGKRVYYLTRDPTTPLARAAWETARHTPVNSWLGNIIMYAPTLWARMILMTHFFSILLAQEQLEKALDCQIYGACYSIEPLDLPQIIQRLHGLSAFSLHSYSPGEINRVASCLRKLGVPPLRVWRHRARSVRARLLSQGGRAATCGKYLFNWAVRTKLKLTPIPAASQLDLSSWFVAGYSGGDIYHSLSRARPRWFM

COc1ccc2c(c1)C=C(c1c(C(=O)N3C4CCC3CN(C)C4)c(C)nn1C(C)C)Cn1c-2c(C2CCCCC2)c2ccc(C(=O)NS(=O)(=O)C(C)C)cc21
IC50 (HCV NS5B): 0.001 to 0.5 µM | EC50 (HCV replicon): 0.001 to 0.5 µM

CCN1CC2CC1CN2C(=O)c1c(C)nn(CC)c1C1=Cc2cc(OC)ccc2-c2c(C3CCCCC3)c3ccc(C(=O)NS(=O)(=O)C(C)C)cc3n2C1 (centres unmarked)
IC50 (HCV NS5B; [1]): 0.001 to 0.5 µM | EC50 (HCV replicon): 0.001 to 0.5 µM

COc1ccc2c(c1)C=C(c1c(C(=O)N3CCN(C)CC3)cnn1CC(F)(F)F)Cn1c-2c(C2CCCCC2)c2ccc(C(=O)NS(=O)(=O)C(C)C)cc21
IC50 (HCV NS5B; [1]): 0.001 to 0.5 µM | EC50 (HCV replicon; [2]): 0.001 to 0.5 µM

CCOC(=O)c1c(C)nn(CC)c1C1=Cc2cc(OC)ccc2-c2c(C3CCCCC3)c3ccc(C(N)=O)cc3n2C1
IC50 (HCV NS5B; [1]): 0.001 to 0.5 µM | EC50 (HCV replicon; [2]): > 0.5 µM
